One data set relates to U87MG cells. The data set is described as follows: Cytotoxicity study, MTT assay with 2.5 mM Ca(II). Type of data set: cell-based, human. The settings on record: 24 h. The procedure: Gd@C-dots were also subjected to a cytotoxicity study with U87MG cells using standard MTT assays. The cells were first seeded in 96-well plates (1×10^4 cells per well). After 24 h, Gd@C-dots at different concentrations were added. Incubation was carried out for 24 h with or without 2.5 mM CaCl2. To assess the particles' stability against transmetallation, which is the major cause of toxicity for conventional Gd contrast agents (Corot et al., J. Magn. Reson. Imaging 1998, 8(3):695-702), 2.5 mM Ca(II) was added into the incubation medium.
Background: Tetrazolium assays rely on reduction of a dye to a coloured formazan, in cell work by metabolically active cells.

The conditions of data set [1]: comparison value for Gd-DTPA, literature references; cited from earlier work.

Turning to `CNC[C@H](O)[C@@H](O)[C@H](O)[C@H](O)CO.CNC[C@H](O)[C@@H](O)[C@H](O)[C@H](O)CO.O=C([O-])CN(CCN(CC(=O)[O-])CC(=O)O)CCN(CC(=O)[O-])CC(=O)O.[Gd+3]` [Gd-DTPA, gadopentetic acid], the “IC50 (cell death)” value with U87MG cells was found to be 33.1 µg/mL. Also, the r1 relaxivity in data set [1] is 3.10 mM⁻¹ s⁻¹.
